Each molecule was assayed against T1, Angiotensin-II-receptor (Rattus norvegicus, UniProt P25095) (assay: Angiotensin-II-receptor binding (rat lung homogenate, [^125 I]-angiotensin-II displacement)). Details: rat's lung homogenate; 50 pM [^125 I]-angiotensin-II; 60 minutes at 37° C.; pH 7.40.
T1 construct: The tissue (rat's lung) is homogenised in tris buffer; from tissue; host or cells: rat lung homogenate
T1 sequence (P25095 1-359): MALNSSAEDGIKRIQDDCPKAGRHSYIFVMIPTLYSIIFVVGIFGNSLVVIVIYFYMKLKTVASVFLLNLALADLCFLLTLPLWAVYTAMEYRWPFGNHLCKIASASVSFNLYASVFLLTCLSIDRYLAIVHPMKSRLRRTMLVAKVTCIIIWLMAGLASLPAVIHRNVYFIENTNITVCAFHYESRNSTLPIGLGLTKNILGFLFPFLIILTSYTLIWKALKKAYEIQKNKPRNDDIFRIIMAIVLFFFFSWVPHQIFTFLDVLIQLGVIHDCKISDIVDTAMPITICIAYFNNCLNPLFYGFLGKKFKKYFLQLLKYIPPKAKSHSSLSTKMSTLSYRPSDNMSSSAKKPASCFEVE
Procedure: The tissue (rat's lung) is homogenised in tris buffer (50 mMol Tris, 150 mMol NaCl, 5 mMol EDTA, pH 7.40) and centrifuged twice for 20 minutes each time at 20,000×g. The resulting pellet is resuspended in incubation buffer (50 mMol Tris, 5 mMol MgCl2, 0.2% BSA, pH 7.40) 1:75, based on the moist weight of the tissue. Each 0.1 ml of homogenate is incubated for 60 minutes at 37° C. with 50 pM [^125 I]-angiotensin-II (NEN, Dreieich, FRG) and increasing concentrations of the test substance in a total volume of 0.25 ml. The incubation is terminated by rapid filtration through glass fibre filter mats. The filters are each washed with 4 ml of ice cold buffer (25 mMol Tris, 2.5 mMol MgCl2, 0.1% BSA, pH 7.40). The bound radioactivity is measured in a gamma-counter. The corresponding IC50 value is determined from the dosage-activity curve.

| IC50 | Structure (SMILES) |
| --- | --- |
| 310 nM | CCCc1nc2c(C)cc(-c3nc4ccccc4n3C)cc2n1Cc1ccc(-c2ccccc2S(=O)(=O)NC(=O)NC2CCCCC2)cc1 [G] |
| 40 nM | CCCc1nc2c(C)cc(-c3nc4ccccc4n3C)cc2n1Cc1ccc(-c2ccccc2NC(=O)C(F)(F)F)cc1 [D] |
| 8 nM | CCCc1nc2c(C)cc(-c3nc4ccccc4n3C)cc2n1Cc1ccc(-c2ccccc2S(=O)(=O)O)cc1 [B] |
| 94 nM | CCCc1nc2c(C)cc(-c3nc4ccccc4n3C)cc2n1Cc1ccc(-c2ccccc2C=C2SC(=O)NC2=O)cc1 [A] |
| 78 nM | CCCc1nc2c(C)cc(-c3nc4ccccc4n3C)cc2n1Cc1ccc(-c2ccccc2S(=O)(=O)NC(=O)c2ccccc2)cc1 [H] |

Continued, molecule first:

| Structure (SMILES) | IC50 |
| --- | --- |
| CCCc1nc2c(C)cc(-c3nc4ccccc4n3C)cc2n1Cc1ccc(-c2ccccc2S(=O)(=O)NC(=O)NCc2ccc(OC)cc2)cc1 [F] | 110 nM |
| CCc1nc2c(C)cc(-c3cn4c(n3)CCCC4)cc2n1Cc1ccc(-c2ccccc2S(=O)(=O)NC(=O)c2ccccc2)cc1 [I] | 36 nM |
| CCc1nc2c(C)cc(-c3cn4c(n3)CCCC4)cc2n1Cc1ccc(-c2ccccc2S(=O)(=O)O)cc1 [C] | 3.4 nM |
| CCCCc1nc2c(C)cc(N3CCCS3(=O)=O)cc2n1Cc1ccc(-c2ccccc2S(=O)(=O)NC(=O)c2ccccc2)cc1 [J] | 13.9 nM |
| CCc1nc2c(C)cc(-c3cn4c(n3)CCCC4)cc2n1Cc1ccc(-c2ccccc2NC(=O)C(F)(F)F)cc1 [E] | 28 nM |
| CCc1nc2c(C)cc(-c3cn4c(n3)CCCC4)cc2n1Cc1ccc(-c2ccccc2S(=O)(=O)NC(=O)NC2CCCCC2)cc1 [K] | 73 nM |
